Consider three molecules from patent US10492511B2, “Preparations” (Symrise AG, priority 2012, dated 2019).

Assay [1] is described as follows: Reduction in apatite solubility (ALR), lactic acid consumption at pH 5. The note with it: 0.5 g hydroxyapatite in 300 ml water, 37° C., pH 5, 2 hours. The protocol: In order to determine the reduction in apatite stability, a blind test was first conducted. For this purpose, a reaction vessel with 300 ml of desalinated water was temperature-controlled to 37° C., and 0.5 g of hydroxyapatite powder (spec. surface area 60 m^2/g, Merck) was suspended therein. The pH value of the suspension was kept at a constant value of 5 by means of an automatic burette used to add lactic acid. The amount of 0.1 molar lactic acid consumed in order to stabilize the pH was registered with a recorder.
The reduction in apatite solubility (ALR in %) caused by the active ingredient was calculated as follows: ALR (%)=(Lu−Lb)*100/Lu (%)

The nature of assay [2]: Inhibition of crystal growth (KWI) of hydroxyapatite, KOH consumption at pH 7.4. The note with it: 100 mg hydroxyapatite, pH 7.4, 2 hours. The protocol: In order to determine inhibition of crystal growth (KWI in %) by hydroxyapatite, a blind test was also first conducted. For this purpose, a reaction vessel with 400 ml of a 0.0008 molar solution of KH2PO4 and 45 ml of a 0.012 molar solution of CaCl2 was prepared. This solution was adjusted to a pH of 7.4 by titration with a 0.05 molar solution of KOH. After a stable pH value had been maintained for at least 30 minutes, 100 mg of hydroxyapatite powder (spec. surface area 60 m^2/g, Merck) was added. The pH value of the suspension was kept at a constant value of 7.4 by means of an automatic burette which can be used to add 0.05 molar KOH solution. The amount of 0.05 molar KOH solution consumed in order to stabilize the pH was registered with a recorder. The consumption of KOH solution (Ku) registered after 2 hours was equivalent to the formation of hydroxyapatite (growth of crystals in the suspension).
Inhibition of crystal growth by the active ingredient was calculated as follows: KWI (%)=(Ku−Kb)*100/Ku (%)

Setting [3] is: 150 mg active ingredient mixture.
Where [4] appears, read: 30 mg active ingredient mixture.

Consider `CC1CCC(C(C)C)C2(C1)OCC(CO)O2` (centres unmarked) [Example V10, Menthone glyceryl acetal], for which the “Apatite solubility [%]” value in assay [1] (setting [3]) is 13%. Besides, the entries for the “Crystal growth inhibition [%]” value in assay [2] (5 mg active ingredient) and in assay [2] (6 mg active ingredient) were 9% and 17%, respectively.

Turning to `COC(=O)C(C)O` (centres unmarked) [Example V9, Methyl lactate], the entries for the “Apatite solubility [%]” value in assay [1] (setting [4]) and in assay [1] (setting [3]) were 5% and 12%, respectively. Further, the results for the “Crystal growth inhibition [%]” value in assay [2] (5 mg active ingredient) and in assay [2] (6 mg active ingredient) were 10% and 14%, respectively.

For the molecule `Cc1ccc(C(C)C)c(OCC(=O)N(Cc2cccs2)c2cc[nH]n2)c1` [Example V11, 2-(2-isopropyl-5-methylphenoxy)-N-(1H-pyrazol-3-yl)-N-(thiophen-2-yl)-methylacetamide], the results for the “Apatite solubility [%]” value in assay [1] (setting [4]) and in assay [1] (setting [3]) were 5% and 14%, respectively. Further, the “Crystal growth inhibition [%]” value in assay [2] (5 mg active ingredient) worked out at 11%; in assay [2] (6 mg active ingredient) it was 16%.
